Results from ChEMBL document CHEMBL2331086, “Pharmacological properties and predicted binding mode of arylmethylene quinuclidine-like derivatives at the α3β4 nicotinic acetylcholine receptor (nAChR)” (Bioorg Med Chem Lett, 2013).
Active and inactive are the calls of the source. The calls are words filed in the database; no cut-off is given here.

Tests used:
[1] = target: T1, Neuronal acetylcholine receptor; alpha3/beta4 (Homo sapiens, UniProt P30926+P32297); assay: Agonist activity at human alpha3beta4 nAChR expressed in CHO cells at 0.1 uM by electrophysiological analysis relative to acetylcholine; assay type: cell-based
T1 sequence (P30926 whole entry): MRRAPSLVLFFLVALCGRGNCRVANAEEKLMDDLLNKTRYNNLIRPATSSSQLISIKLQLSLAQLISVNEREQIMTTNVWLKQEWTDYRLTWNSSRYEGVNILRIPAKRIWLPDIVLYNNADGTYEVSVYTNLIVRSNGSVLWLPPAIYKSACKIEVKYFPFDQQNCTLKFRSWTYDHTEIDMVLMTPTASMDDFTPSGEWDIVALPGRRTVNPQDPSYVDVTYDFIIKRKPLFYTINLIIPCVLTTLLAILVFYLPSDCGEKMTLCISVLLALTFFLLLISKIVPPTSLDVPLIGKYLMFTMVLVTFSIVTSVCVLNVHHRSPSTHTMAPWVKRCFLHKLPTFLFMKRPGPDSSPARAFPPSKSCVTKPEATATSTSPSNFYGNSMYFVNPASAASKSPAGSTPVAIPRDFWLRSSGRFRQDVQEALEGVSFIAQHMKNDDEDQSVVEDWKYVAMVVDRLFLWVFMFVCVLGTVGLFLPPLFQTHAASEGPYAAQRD
T1 sequence (P32297 whole entry): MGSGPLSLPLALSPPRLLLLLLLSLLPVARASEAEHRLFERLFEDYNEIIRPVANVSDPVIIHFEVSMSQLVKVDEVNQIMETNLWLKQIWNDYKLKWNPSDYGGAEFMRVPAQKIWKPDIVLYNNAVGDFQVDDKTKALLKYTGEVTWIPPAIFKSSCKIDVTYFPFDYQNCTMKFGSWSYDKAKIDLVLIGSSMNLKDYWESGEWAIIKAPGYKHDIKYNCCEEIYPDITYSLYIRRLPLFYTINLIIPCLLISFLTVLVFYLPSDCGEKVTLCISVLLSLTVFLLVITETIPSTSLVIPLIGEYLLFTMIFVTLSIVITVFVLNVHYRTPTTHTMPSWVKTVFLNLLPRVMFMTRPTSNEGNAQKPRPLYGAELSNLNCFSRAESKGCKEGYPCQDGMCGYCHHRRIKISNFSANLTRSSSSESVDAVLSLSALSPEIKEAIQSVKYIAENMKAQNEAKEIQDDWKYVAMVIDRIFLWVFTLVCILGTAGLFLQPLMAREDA

[2] = target: T1, Neuronal acetylcholine receptor; alpha3/beta4; assay: Agonist activity at human alpha3beta4 nAChR expressed in CHO cells at 10 uM by electrophysiological analysis relative to acetylcholine; assay type: cell-based
[3] = target: T1, Neuronal acetylcholine receptor; alpha3/beta4; assay: Inhibition of human alpha3beta4 nAChR expressed in CHO cells assessed as inhibition of calcium influx by calcium-4 based FLIPR analysis; assay type: cell-based
[4] = target: T1, Neuronal acetylcholine receptor; alpha3/beta4; assay: Agonist activity at human alpha3beta4 nAChR expressed in CHO cells assessed as calcium influx by calcium-4 based FLIPR analysis relative to nicotine; assay type: cell-based
[5] = target: T1, Neuronal acetylcholine receptor; alpha3/beta4; assay: Displacement of [3H]epibatidine from human alpha3beta4 nAChR expressed in CHO cells after 2 hrs by liquid scintillation counting; assay type: cell-based
[6] = target: T1, Neuronal acetylcholine receptor; alpha3/beta4; assay: Agonist activity at human alpha3beta4 nAChR expressed in CHO cells at 1 uM by electrophysiological analysis relative to acetylcholine; assay type: cell-based
[7] = target: T1, Neuronal acetylcholine receptor; alpha3/beta4; assay: Agonist activity at human alpha3beta4 nAChR expressed in CHO cells assessed as calcium influx by calcium-4 based FLIPR analysis; assay type: cell-based
[8] = target: T1, Neuronal acetylcholine receptor; alpha3/beta4; assay: Non-competitive antagonist activity at human alpha3beta4 nAChR expressed in CHO cells assessed as inhibition of nicotine-induced calcium influx incubated for 30 mins prior to nicotine-induction by calcium-4 based FLIPR analysis; assay type: cell-based
[9] = target: T1, Neuronal acetylcholine receptor; alpha3/beta4; assay: Reversible inhibition of human alpha3beta4 nAChR expressed in CHO cells assessed as inhibition of acetylcholine-induced response at 1 uM measured after compound washout by electrophysiological method; assay type: cell-based
[10] = target: T2, Muscarinic acetylcholine receptor M2 (Rattus norvegicus, UniProt P10980); assay: Antagonist activity at rat muscarinic M2 receptor isolated from brain
T2 sequence (P10980 whole entry): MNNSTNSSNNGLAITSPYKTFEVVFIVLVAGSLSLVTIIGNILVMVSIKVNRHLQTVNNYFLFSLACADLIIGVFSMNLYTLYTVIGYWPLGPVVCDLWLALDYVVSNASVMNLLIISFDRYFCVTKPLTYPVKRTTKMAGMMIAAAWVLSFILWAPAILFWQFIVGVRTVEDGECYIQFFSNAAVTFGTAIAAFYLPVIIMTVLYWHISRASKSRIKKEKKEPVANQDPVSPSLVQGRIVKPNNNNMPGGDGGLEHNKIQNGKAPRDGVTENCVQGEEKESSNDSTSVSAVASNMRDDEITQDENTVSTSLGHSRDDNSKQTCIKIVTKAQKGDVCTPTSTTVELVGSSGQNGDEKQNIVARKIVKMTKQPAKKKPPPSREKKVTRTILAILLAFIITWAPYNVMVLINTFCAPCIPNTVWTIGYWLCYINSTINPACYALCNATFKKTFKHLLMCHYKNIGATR

[11] = target: T3, Muscarinic acetylcholine receptor M1 (Rattus norvegicus, UniProt P08482); assay: Antagonist activity at rat muscarinic M1 receptor isolated from brain
T3 sequence (P08482 whole entry): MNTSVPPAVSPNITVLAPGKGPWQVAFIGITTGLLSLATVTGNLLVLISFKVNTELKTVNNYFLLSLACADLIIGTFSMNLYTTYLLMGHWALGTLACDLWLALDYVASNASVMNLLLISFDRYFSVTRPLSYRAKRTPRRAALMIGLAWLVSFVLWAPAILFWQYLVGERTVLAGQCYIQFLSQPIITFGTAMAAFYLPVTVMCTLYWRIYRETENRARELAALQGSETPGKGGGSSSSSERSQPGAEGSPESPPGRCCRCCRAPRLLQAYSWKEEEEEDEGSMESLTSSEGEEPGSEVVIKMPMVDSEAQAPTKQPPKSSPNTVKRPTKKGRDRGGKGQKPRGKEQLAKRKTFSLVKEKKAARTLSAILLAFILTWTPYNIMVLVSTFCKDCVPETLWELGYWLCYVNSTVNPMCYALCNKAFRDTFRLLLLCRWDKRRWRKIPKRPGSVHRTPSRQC

| SMILES | Activity [1] [%] | Activity [2] [%] | IC50 [3] [µM] | Emax [4] [%] | Ki [5] [µM] | Activity [6] [%] | EC50 [7] [µM] | IC50 [8] [µM] | inhibition [9] | IC50 [10] [µM] | IC50 [11] [µM] |
| --- | --- | --- | --- | --- | --- | --- | --- | --- | --- | --- | --- |
| N#CC(c1ccccc1)C1CN2CCC1CC2 (stereo not given) | 1 | 6 | 23 | < 10 | 2.1 | 2 |  |  |  |  |  |
| c1ccc(C[N+]23CCC(CC2)C(C(c2ccccc2)c2ccccc2)C3)cc1 (stereo not given) | 0.5 | 0.4 | 0.08 | 10 | 2.3 | 1 | 9 | 0.6 | inactive |  |  |
| c1ccc(C(c2ccccc2)C2CN3CCC2CC3)cc1 (stereo not given) | 0.5 | 7 | 0.2 | 14 | 1.5 | 2 | > 10 | 0.4 | Active |  |  |
| C(=C1/CN2CCC1CC2)/c1ccccc1 | 1 | 7 | 6 | 25 | 2.1 | 2 | 3 |  |  |  |  |
| C(CN1CCCCC1)=C(c1ccccc1)c1ccccc1 | 0.5 | 0.6 | 0.1 | 31 | 2.2 | 0.7 | > 10 | 0.38 | inactive | 0.372 | 0.0759 |
| C(=C1/CN2CCC1CC2)/c1cccnc1 | 5 | 56 | 10 | 31 | 1.6 | 22 | 2 |  |  |  |  |
| c1ccc(C(c2ccccc2)[N+]23CCN(CC2)CC3)cc1 | 1 | 0.5 | 15 | < 10 | 8.5 | 0.7 |  |  |  |  |  |
